Results reported in patent US8574608B2, “Bactericidal silver surfactant delivery into coating and polymer compositions” (Eastern Michigan Universtity, priority 2007, dated 2013).

Assays:
[1] = system: S. aureus; assay: S. aureus challenged by silver surfactants in laboratory acrylic clearcoat; assay type: cell-based, Staphylococcus aureus; details: laboratory solvent borne acrylate clearcoat, 24 h contact time; note: key: A minus sign (−) denotes no growth; a plus sign (+) denotes confluent growth; a capital P (P) denotes particle growth
[2] = system: E. coli; assay: E. coli challenged by silver surfactants in laboratory acrylic paint; assay type: cell-based, Escherichia coli; details: 24 h contact time; for surviving bacteria (growth): laboratory solvent borne acrylate paint coating; for surviving bacteria (growth): key: A minus sign (−) denotes no growth; a plus sign (+) denotes confluent growth; a capital P (P) denotes particle growth
[3] = system: E. coli; assay: E. coli challenged by silver surfactants in commercial acrylic paint; assay type: cell-based, Escherichia coli; details: 24 h contact time; for surviving bacteria (growth): commercial solvent borne acrylate paint coating; for surviving bacteria (growth): key: A minus sign (−) denotes no growth; a plus sign (+) denotes confluent growth; a capital P (P) denotes particle growth
[4] = system: E. coli; assay: E. coli challenged by silver surfactants in commercial 2K epoxy paint; assay type: cell-based, Escherichia coli; details: 24 h contact time; for surviving bacteria (growth): commercial 2K epoxy paint coating
[5] = system: E. coli; assay: E. coli challenged by silver surfactants in commercial alkyd paint; assay type: cell-based, Escherichia coli; details: alkyd resin paint coating, 24 h contact time; note: key: A minus sign (−) denotes no growth; a plus sign (+) denotes confluent growth; a capital P (P) denotes particle growth
[6] = system: Staphylococcus epidermidis; assay: Growth on agar plates containing sodium surfactant; assay type: cell-based; details: agar plates with sodium surfactant; strain EM3/ATCC12228; replicates 1-2 or 1-3
[7] = system: Streptococcus bovis; assay: Growth on agar plates containing sodium surfactant; assay type: cell-based; details: agar plates with sodium surfactant; strain EM12; replicates 1-2 or 1-3
[8] = system: Staphylococcus aureus; assay: Growth on agar plates containing sodium surfactant; assay type: cell-based; details: agar plates with sodium surfactant, replicates 1-2 or 1-3; note: test concentration or dose not given here
[9] = system: Enterococcus fecalis; assay: Growth on agar plates containing sodium surfactant; assay type: cell-based; details: agar plates with sodium surfactant, replicates 1-2 or 1-3; note: test concentration or dose not given here
[10] = system: Bacillus subtilis; assay: Growth on agar plates containing sodium surfactant; assay type: cell-based; details: agar plates with sodium surfactant, replicates 1-2 or 1-3; note: test concentration or dose not given here
[11] = system: Streptococcus agalactiae; assay: Growth on agar plates containing sodium surfactant; assay type: cell-based; details: agar plates with sodium surfactant; strain EM13; replicates 1-2 or 1-3; note: test concentration or dose not given here
[12] = system: Streptococcus viridans; assay: Growth on agar plates containing sodium surfactant; assay type: cell-based; details: agar plates with sodium surfactant; strain EM8; replicates 1-2 or 1-3
[13] = system: Micrococcus luteus; assay: Growth on agar plates containing sodium surfactant; assay type: cell-based; details: agar plates with sodium surfactant; strain EM17; replicates 1-2 or 1-3
[14] = system: Streptococcus pyogenes; assay: Growth on agar plates containing sodium surfactant; assay type: cell-based; details: agar plates with sodium surfactant; strain EM14; replicates 1-2 or 1-3

CCCCCCCCCCCCOS(=O)(=O)[O-].[Ag+] [AgDS, Silver dodecylsufate]
surviving bacteria (growth) ([1]; 0.0012 weight % Ag in coating): −
surviving bacteria (growth) ([1]; 0.003 weight % Ag in coating): −
surviving bacteria (growth) ([1]; 0.006 weight % Ag in coating): −
surviving bacteria (growth) ([1]; 0.012 weight % Ag in coating): −
surviving bacteria (growth) ([1]; 0.03 weight % Ag in coating): −
surviving bacteria (growth) ([1]; 0.06 weight % Ag in coating): −
surviving bacteria (growth) ([1]; 0.12 weight % Ag in coating): −
silver level effective at preventing any growth ([2]; laboratory acrylic paint): 0.03 % w/w
silver level with partial inhibition (only partial growth) ([2]; laboratory acrylic paint): 0.012%
surviving bacteria (growth) ([2]; 0.0012 weight % Ag in coating): +
surviving bacteria (growth) ([2]; 0.003 weight % Ag in coating): +
surviving bacteria (growth) ([2]; 0.006 weight % Ag in coating): +
surviving bacteria (growth) ([2]; 0.03 weight % Ag in coating): −
surviving bacteria (growth) ([2]; 0.06 weight % Ag in coating): −
surviving bacteria (growth) ([2]; 0.12 weight % Ag in coating): −
silver level effective at preventing any growth ([3]; commercial acrylic paint): 0.03 % w/w
surviving bacteria (growth) ([3]; 0.0012 weight % Ag in coating): +
surviving bacteria (growth) ([3]; 0.003 weight % Ag in coating): +
surviving bacteria (growth) ([3]; 0.006 weight % Ag in coating): +
surviving bacteria (growth) ([3]; 0.012 weight % Ag in coating): +
surviving bacteria (growth) ([3]; 0.03 weight % Ag in coating): −
surviving bacteria (growth) ([3]; 0.06 weight % Ag in coating): −
surviving bacteria (growth) ([3]; 0.12 weight % Ag in coating): −
surviving bacteria (growth) ([4]; 0.0012 weight % Ag in coating): +
surviving bacteria (growth) ([4]; 0.003 weight % Ag in coating): +
surviving bacteria (growth) ([4]; 0.006 weight % Ag in coating): +
surviving bacteria (growth) ([4]; 0.03 weight % Ag in coating): −
surviving bacteria (growth) ([4]; 0.06 weight % Ag in coating): −
surviving bacteria (growth) ([4]; 0.12 weight % Ag in coating): −
silver level giving complete inhibition of growth ([4]; commercial 2K epoxy paint): 0.03 % w/w
silver level partially effective ([4]; commercial 2K epoxy paint): 0.012 % w/w
surviving bacteria (growth) ([5]; 0.0012 weight % Ag in coating): +
surviving bacteria (growth) ([5]; 0.003 weight % Ag in coating): +
surviving bacteria (growth) ([5]; 0.006 weight % Ag in coating): +
surviving bacteria (growth) ([5]; 0.012 weight % Ag in coating): +
surviving bacteria (growth) ([5]; 0.03 weight % Ag in coating): −
surviving bacteria (growth) ([5]; 0.06 weight % Ag in coating): −
surviving bacteria (growth) ([5]; 0.12 weight % Ag in coating): −

CCCCC(CC)COC(=O)CC(C(=O)OCC(CC)CCCC)S(=O)(=O)[O-].[Na+] (centres unmarked) [Compound S1]
Survival: No Growth/Full Growth [6]: −
Survival: No Growth/Full Growth [7]: −
Survival: No Growth/Full Growth ([8]; strain ATCC6538): −
Survival: No Growth/Full Growth ([8]; strain EM24/ATCC25923): −
Survival: No Growth/Full Growth ([9]; strain EM19, first line): −
Survival: No Growth/Full Growth ([9]; strain EM19, second line): −
Survival: No Growth/Full Growth ([10]; strain ATCC33): −
Survival: No Growth/Full Growth ([10]; strain EM27): −
Survival: No Growth/Full Growth [11]: −
Survival: No Growth/Full Growth [12]: −
Survival: No Growth/Full Growth [13]: −
Survival: No Growth/Full Growth [14]: −

CCCCC(CC)COP(=O)([O-])OCCC(CC)CCC.[Na+] (centres unmarked) [Compound S2]
Survival: No Growth/Full Growth [6]: −
Survival: No Growth/Full Growth [7]: −
Survival: No Growth/Full Growth ([8]; strain ATCC6538): −
Survival: No Growth/Full Growth ([8]; strain EM24/ATCC25923): −
Survival: No Growth/Full Growth ([9]; strain EM19, first line): −
Survival: No Growth/Full Growth ([9]; strain EM19, second line): −
Survival: No Growth/Full Growth ([10]; strain ATCC33): −
Survival: No Growth/Full Growth ([10]; strain EM27): −
Survival: No Growth/Full Growth [11]: −
Survival: No Growth/Full Growth [12]: −
Survival: No Growth/Full Growth [13]: −
Survival: No Growth/Full Growth [14]: −

CC(C)CC(C)OC(=O)CC(C(=O)OC(C)CC(C)C)S(=O)(=O)[O-].[Na+] (centres unmarked) [Compound S4]
Survival: No Growth/Full Growth [6]: −
Survival: No Growth/Full Growth [7]: −
Survival: No Growth/Full Growth ([8]; strain ATCC6538): −
Survival: No Growth/Full Growth ([8]; strain EM24/ATCC25923): −
Survival: No Growth/Full Growth ([9]; strain EM19, first line): −
Survival: No Growth/Full Growth ([9]; strain EM19, second line): +
Survival: No Growth/Full Growth ([10]; strain ATCC33): −
Survival: No Growth/Full Growth ([10]; strain EM27): −
Survival: No Growth/Full Growth [11]: −
Survival: No Growth/Full Growth [12]: +
Survival: No Growth/Full Growth [13]: −
Survival: No Growth/Full Growth [14]: −
